Target: Dipeptidyl peptidase 4 (Homo sapiens, UniProt P27487)
Assay: Dipeptidyl Peptidase Inhibition Assay
Settings: pH 7.5; 37 °C

Chain of Dipeptidyl peptidase 4 (P27487 whole entry): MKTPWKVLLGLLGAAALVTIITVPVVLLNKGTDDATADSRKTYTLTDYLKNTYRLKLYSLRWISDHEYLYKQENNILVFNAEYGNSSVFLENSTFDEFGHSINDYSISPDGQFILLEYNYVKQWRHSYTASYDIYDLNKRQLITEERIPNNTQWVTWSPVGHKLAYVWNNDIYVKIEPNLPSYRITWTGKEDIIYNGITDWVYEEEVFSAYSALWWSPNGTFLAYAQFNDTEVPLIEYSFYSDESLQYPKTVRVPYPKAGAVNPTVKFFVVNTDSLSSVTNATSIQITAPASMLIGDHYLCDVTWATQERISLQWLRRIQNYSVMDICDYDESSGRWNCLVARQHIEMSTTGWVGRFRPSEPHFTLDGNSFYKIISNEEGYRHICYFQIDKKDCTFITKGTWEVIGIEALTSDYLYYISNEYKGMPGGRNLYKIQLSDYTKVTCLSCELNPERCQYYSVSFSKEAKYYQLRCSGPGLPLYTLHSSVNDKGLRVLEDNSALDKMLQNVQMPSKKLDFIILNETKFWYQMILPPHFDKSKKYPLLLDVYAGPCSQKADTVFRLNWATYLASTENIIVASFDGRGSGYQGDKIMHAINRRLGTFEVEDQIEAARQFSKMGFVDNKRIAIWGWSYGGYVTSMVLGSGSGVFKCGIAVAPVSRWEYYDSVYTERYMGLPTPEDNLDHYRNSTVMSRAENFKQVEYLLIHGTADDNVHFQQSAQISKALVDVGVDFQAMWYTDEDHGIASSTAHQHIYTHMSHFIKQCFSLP

Row | IC50 | Compound
1 | 520 nM | C[C@H](C(=O)N1CCOCC1)[C@@H](C(=O)N(C)C)c1ccc(-c2ccc(F)cc2)cc1 [(2R,3S)-2-[4-(4-fluorophenyl)phenyl]-N,N,3-trimethyl-4-(morpholin-4-yl)-4-oxobutanamide]
2 | 8 nM | CC(C)[C@H](Oc1ccc(CNC(=O)[C@@H]2CCCN2C(=O)C[C@H](N)Cc2c(F)c(F)c(F)c(F)c2F)cc1)C(=O)O [(2S)-2-[4-({[(2S)-1-[(3R)-3-amino-4-(2,3,4,5,6-pentafluorophenyl)butanoyl]pyrrolidin-2-yl]formamido}methyl)phenoxy]-3-methylbutanoic acid]
